Results as given in PubChem BioAssay AID391 (SGCOxCompounds, 2006).

What follows are compounds tested against Serine/threonine-protein kinase PAK 6 (Homo sapiens) (UniProt Q9NQU5) (assay: PAK6 binders by thermal shift, biophysical, DSF, SYPRO orange, recombinant protein (AID 391)). Details: at 10 µM, protein 2 µM, buffer 10 mM HEPES, pH 7.5, NaCl 150 mM, run set 1, hits give high values.
Serine/threonine-protein kinase PAK 6 (Homo sapiens), sequence (Q9NQU5 whole entry, looked up): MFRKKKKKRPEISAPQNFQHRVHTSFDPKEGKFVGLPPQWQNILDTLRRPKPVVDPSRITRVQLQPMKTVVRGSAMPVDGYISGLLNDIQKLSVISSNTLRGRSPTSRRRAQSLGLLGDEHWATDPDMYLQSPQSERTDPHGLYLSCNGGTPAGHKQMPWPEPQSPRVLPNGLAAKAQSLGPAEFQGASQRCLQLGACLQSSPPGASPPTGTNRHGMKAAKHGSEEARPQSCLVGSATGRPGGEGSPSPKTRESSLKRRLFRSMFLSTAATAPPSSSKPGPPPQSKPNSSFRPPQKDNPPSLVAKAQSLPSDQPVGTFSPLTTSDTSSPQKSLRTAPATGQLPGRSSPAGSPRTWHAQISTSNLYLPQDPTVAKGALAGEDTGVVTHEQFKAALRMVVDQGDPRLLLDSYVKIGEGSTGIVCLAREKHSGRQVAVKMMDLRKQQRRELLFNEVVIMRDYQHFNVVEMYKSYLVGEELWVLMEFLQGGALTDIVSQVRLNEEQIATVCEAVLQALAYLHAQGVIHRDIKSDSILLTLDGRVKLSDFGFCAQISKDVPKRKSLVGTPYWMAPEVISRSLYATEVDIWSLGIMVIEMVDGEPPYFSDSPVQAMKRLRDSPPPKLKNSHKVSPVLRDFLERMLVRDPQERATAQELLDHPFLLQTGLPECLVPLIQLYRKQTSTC

| SMILES | Tm shift [Celsius] |
| --- | --- |
| O=C1NC(=O)c2c1c1c3ccccc3n3c1c1c2c2ccccc2n1[C@@H]1CCC3O1 | 6.44 |
| O=Nc1c(-c2c(O)[nH]c3ccc(S(O)(O)O)cc23)[nH]c2ccccc12 | 3.24 |
| CC(C)n1cnc2c(Nc3cccc(Cl)c3)nc(NCCO)nc21 | 4.44 |
| NCCCn1cc(C2=C(c3c[nH]c4ccccc34)C(=O)NC2=O)c2ccccc21 | 4.48 |
| N=C(N)SCCCn1cc(C2=C(c3c[nH]c4ccccc34)C(=O)NC2=O)c2ccccc21 | 3.13 |
| CC(C)C(CO)Nc1nc(Nc2cccc(Cl)c2)c2ncn(C(C)C)c2n1 (centres undefined) | 5.88 |
| O=C1Cc2c([nH]c3ccc(N(O)O)cc23)-c2ccccc2N1 | 3.92 |
| NC(=O)Nc1sc(-c2ccccc2)cc1C(N)=O | 3.43 |

Same assay, conditions: at 10 µM, protein 2 µM, buffer 10 mM HEPES, pH 7.5, NaCl 150 mM, run set 2, hits give high values

| SMILES | Tm shift [Celsius] |
| --- | --- |
| O=C1Cc2c([nH]c3ccc(Br)cc23)-c2ccccc2N1 | 3.2 |
| CCN(CC)CCNC(=O)c1c(C)[nH]c(/C=C2\C(=O)Nc3ccc(Cl)cc32)c1C | 3.8 |
| CC(C)n1cnc2c(Nc3cccc(Cl)c3)nc(NCCO)nc21 | 3.2 |
| NC(=O)c1ccc(-c2nc(-c3ccc4c(c3)OCCO4)c(-c3ccccn3)[nH]2)cc1 | 4.8 |
| Nc1nc(Nc2ccc(S(N)(=O)=O)cc2)nn1C(=S)Nc1c(F)cccc1F | 5.64 |
| NCCNc1ncc(C(N)=O)c(Nc2cccc(C(F)(F)F)c2)n1 | 5.21 |
| Clc1ccc(-c2cnc3ccc(NC4CCOCC4)nn23)cc1 | 3.5 |
| CCn1cnc2c(Nc3cccc(Cl)c3)nc(N[C@@H]3CCCC[C@@H]3N)nc21 | 7 |
| Cc1cc(Nc2nc(-c3ccccc3)nc3ccccc23)n[nH]1 | 5.45 |
| N#Cc1ccc(-c2cnc3ccc(NC4CCOCC4)nn23)cc1 | 3.3 |
| OCC(O)CCO/N=C1/C(c2c(O)[nH]c3ccccc23)=Nc2ccccc21 (centres undefined) | 3.3 |
| O=Nc1c(-c2c(O)[nH]c3ccccc23)[nH]c2ccccc12 | 8.7 |
| Cn1cc(/C=C2\C(=O)Nc3ccc(S(N)(=O)=O)cc32)c2ccccc21 | 4.26 |
| O=Nc1c(-c2c(O)[nH]c3cc(Br)ccc23)[nH]c2ccccc12 | 3.4 |
| CC(O)(O)C1(O)C[C@@H]2O[C@@]1(C)n1c3ccccc3c3c4c(c5c6ccccc6n2c5c31)C(=O)NC4 (some centres undefined) | 7.7 |
| O=C1NCc2c1c1c3ccccc3[nH]c1c1[nH]c3ccccc3c21 | 3.1 |
